Results: ChEMBL document CHEMBL4483862, “Open-source discovery of chemical leads for next-generation chemoprotective antimalarials” (2018)

System: Plasmodium berghei
Experiment: Luciferase/luciferin-expressing antifolate-resistant parasites were used to infect a culture of HepG2 cells that were pre-incubated with compounds. Infected hepatocytes emit light due to the luciferase reaction. Assay results are presented as the percent inhibition of light emission compared to control. […]
Type: functional
Settings: sporozoite; for IC90: read-out: LUCIFERASE INFECTION ASSAY - IC90
[1] = read-out: LUCIFERASE INFECTION ASSAY - IC50

## O=C(/C=C/c1cn(-c2ccccc2)nc1-c1ccncc1)c1cccc(N2CCCC2=O)c1
HEPG2TOX_HILL_SLOPE 7.23, HEPG2TOX_R_SQUARED 0.576, PBLUC_HILL_SLOPE 3.48, PBLUC_R_SQUARED 0.189, read-out: LUCIFERASE INFECTION ASSAY - IC50
  IC50: 9.57 µM
  IC90: > 10 µM

## Cc1cc(C)n(-c2ccc(NC(=O)c3ccc(CN4CCCCC4)cc3)cn2)n1
HEPG2TOX_HILL_SLOPE 1.19, HEPG2TOX_R_SQUARED 0.854, PBLUC_HILL_SLOPE 17.4, PBLUC_R_SQUARED 0.154, read-out: LUCIFERASE INFECTION ASSAY - IC50
  IC50: 9.79 µM
  IC90: > 10 µM

## COC(=O)c1c(-c2cccs2)csc1NC(=O)CSc1cc(C)c2ccccc2n1
[1]
  IC50: > 10 µM
  IC90: > 10 µM

## CC1(CCc2ccccc2)NCC(c2ccc(Cl)cc2Cl)c2c1[nH]c1ccccc21 (stereo not given)
FFLUC_HILL_SLOPE 44.6, FFLUC_R_SQUARED 0.534, read-out: LUCIFERASE INFECTION ASSAY - IC50
  IC50: > 10 µM
  IC90: > 10 µM

## NC1=NC(=O)C(Cc2ccc(OC(F)(F)F)cc2)S1 (stereo not given)
PBLUC_HILL_SLOPE 3.06, PBLUC_R_SQUARED 0.937, read-out: LUCIFERASE INFECTION ASSAY - IC50
  IC50: 0.497 µM
  IC90: 1.02 µM

## O=C(c1c[nH]c(-c2ccccn2)c1)c1cc(Cl)ccc1O
HEPG2TOX_HILL_SLOPE 1.74, HEPG2TOX_R_SQUARED 0.992, PBLUC_HILL_SLOPE 2.29, PBLUC_R_SQUARED 0.459, read-out: LUCIFERASE INFECTION ASSAY - IC50
  IC50: 5.42 µM
  IC90: > 10 µM

## C[C@]12CC[C@H](O)C[C@H]1CCC1C2CC[C@]2(C)[C@@H](C3=CC(=O)OC3)CC[C@]12O (stereo not given in full)
HEPG2TOX_HILL_SLOPE 2.19, HEPG2TOX_R_SQUARED 0.915, PBLUC_HILL_SLOPE 1.64, PBLUC_R_SQUARED 0.798, read-out: LUCIFERASE INFECTION ASSAY - IC50
  IC50: 0.0591 µM
  IC90: 0.225 µM

## Cc1nn(Cc2ccccc2)c2sc(C(=O)Nc3nc4ccccc4[nH]3)cc12
HEPG2TOX_HILL_SLOPE 0.737, HEPG2TOX_R_SQUARED 0.843, PBLUC_HILL_SLOPE 3.70, 1.65, PBLUC_R_SQUARED 0.424, 0.851, read-out: LUCIFERASE INFECTION ASSAY - IC50
  IC50: 0.229 µM
  IC90: 0.562 µM

## CC(C)(C)c1cccc(Nc2ncc(C(=O)c3ccccc3)[nH]2)c1
[1]
  IC50: 8.64 µM
  IC90: > 10.3 µM

## O=C(OCc1cnn(-c2ccccc2)c1)c1cc([N+](=O)[O-])ccc1N1CCCC1
HEPG2TOX_HILL_SLOPE 1.67, HEPG2TOX_R_SQUARED 0.935, PBLUC_HILL_SLOPE 0.776, PBLUC_R_SQUARED 0.413, read-out: LUCIFERASE INFECTION ASSAY - IC50
  IC50: 9.4 µM
  IC90: > 10 µM

## Cc1ccccc1N1CCCn2c1nc1c2c(=O)[nH]c(=O)n1C
[1]
  IC50: > 10.6 µM
  IC90: > 10.6 µM

## CC(Sc1nc(-c2ccccc2)c(-c2ccccc2)o1)C(=O)NC1CC1 (stereo not given)
PBLUC_HILL_SLOPE 75.9, PBLUC_R_SQUARED 0.255, read-out: LUCIFERASE INFECTION ASSAY - IC50
  IC50: 5.37 µM
  IC90: 5.53 µM

## Nc1ccccc1C(=O)Nc1cc(C(F)(F)F)cc(C(F)(F)F)c1
[1]
  IC50: > 9.48 µM
  IC90: > 9.48 µM

## Cc1ccc(-c2nnc(SCC(=O)N3N=C(c4ccc5ccccc5c4)CC3c3ccccc3)[nH]2)cc1 (stereo not given)
[1]
  IC50: > 10 µM
  IC90: > 10 µM

## O=C(Nc1ccccc1)Nc1nnc(C(F)(F)F)s1
HEPG2TOX_HILL_SLOPE 2.53, HEPG2TOX_R_SQUARED 0.953, PBLUC_HILL_SLOPE 4.44, PBLUC_R_SQUARED 0.774, read-out: LUCIFERASE INFECTION ASSAY - IC50
  IC50: 0.65 µM
  IC90: 1.07 µM

## Cc1ccccc1-c1cn2c(-c3ccc(Cl)cc3)cnc2cn1
PBLUC_HILL_SLOPE 7.25, PBLUC_R_SQUARED 0.317, read-out: LUCIFERASE INFECTION ASSAY - IC50
  IC50: 3.83 µM
  IC90: 5.18 µM

## O=C(Nc1ccncc1)c1cc(Br)c(Br)s1
PBLUC_HILL_SLOPE 0.742, PBLUC_R_SQUARED 0.564, read-out: LUCIFERASE INFECTION ASSAY - IC50
  IC50: 4.29 µM
  IC90: > 10 µM

## CCc1ccccc1N(CC(=O)NCC(C)C)S(=O)(=O)c1ccc(C)cc1
[1]
  IC50: > 8.49 µM
  IC90: > 8.49 µM

## CCN(CC)S(=O)(=O)c1ccc(N2CCOCC2)c(NC(=O)c2oc3ccccc3c2C)c1
PBLUC_HILL_SLOPE 2.77, PBLUC_R_SQUARED 0.561, read-out: LUCIFERASE INFECTION ASSAY - IC50
  IC50: 4.08 µM
  IC90: 9.03 µM

## Cc1c(/N=c2\scc(-c3cc4ccccc4o3)n2/N=C/c2ccsc2)c(=O)n(-c2ccccc2)n1C
PBLUC_HILL_SLOPE 16.9, PBLUC_R_SQUARED 0.235, read-out: LUCIFERASE INFECTION ASSAY - IC50
  IC50: 3.54 µM
  IC90: 4.03 µM

## CCCc1cc(-n2ccnc2)n2ncc(-c3ccccc3)c2n1
PBLUC_HILL_SLOPE 1.29, PBLUC_R_SQUARED 0.543, read-out: LUCIFERASE INFECTION ASSAY - IC50
  IC50: 5.89 µM
  IC90: > 10.9 µM

## Cc1cc(-c2cnc(N)c(-c3cccc(C(F)(F)F)c3)c2)cc(C)c1O
HEPG2TOX_HILL_SLOPE 1.44, HEPG2TOX_R_SQUARED 0.945, PBLUC_HILL_SLOPE 1.93, PBLUC_R_SQUARED 0.583, read-out: LUCIFERASE INFECTION ASSAY - IC50
  IC50: 1.55 µM
  IC90: 4.83 µM

## CC(C(=O)Nc1ccc(S(=O)(=O)N2CCCC2)cc1)N1CCC(CCc2ccc(O)cc2)CC1 (stereo not given)
FFLUC_HILL_SLOPE 12.4, FFLUC_R_SQUARED 0.343, PBLUC_HILL_SLOPE 0.669, PBLUC_R_SQUARED 0.407, read-out: LUCIFERASE INFECTION ASSAY - IC50
  IC50: > 10 µM
  IC90: > 10 µM

## CNc1nnc(Sc2ncnc3ccsc23)s1
PBLUC_HILL_SLOPE 11, PBLUC_R_SQUARED 0.35, read-out: LUCIFERASE INFECTION ASSAY - IC50
  IC50: 7.71 µM
  IC90: 9.41 µM

## O=C(Nc1ccccc1C(=O)OCN1C(=O)c2ccccc2C1=O)c1ccc([N+](=O)[O-])cc1Cl
[1]
  IC50: > 10 µM
  IC90: > 10 µM

## O=C(Nc1cccc(Cl)c1)N1CCN(C(=O)c2ccoc2)CC1
[1]
  IC50: > 10 µM
  IC90: > 10 µM

## COc1cc(Nc2ccn3ncc(-c4ccc(OC(F)(F)F)cc4)c3n2)cc(OC)c1OC
PBLUC_HILL_SLOPE 5.07, PBLUC_R_SQUARED 0.236, read-out: LUCIFERASE INFECTION ASSAY - IC50
  IC50: 3.72 µM
  IC90: 5.74 µM

## Oc1cccc(-c2cnc3cnc(-c4ccccc4Cl)cn23)c1
HEPG2TOX_HILL_SLOPE 2.92, HEPG2TOX_R_SQUARED 0.924, PBLUC_HILL_SLOPE 1.11, PBLUC_R_SQUARED 0.809, read-out: LUCIFERASE INFECTION ASSAY - IC50
  IC50: 1.72 µM
  IC90: > 10.3 µM

## O=C1C2=C(Nc3[nH]c(=O)[nH]c(=O)c3C2c2cccs2)c2ccccc21 (stereo not given)
HEPG2TOX_HILL_SLOPE 0.543, HEPG2TOX_R_SQUARED 0.515, read-out: LUCIFERASE INFECTION ASSAY - IC50
  IC50: > 10 µM
  IC90: > 10 µM

## Cc1n[nH]c(Nc2cc(Cl)cc(Cl)c2)nc1=O
[1]
  IC50: > 12.2 µM
  IC90: > 12.2 µM

## Cc1cccc(C(=O)OC(C)C(=O)Nc2sccc2C#N)c1N (stereo not given)
PBLUC_HILL_SLOPE 38.2, PBLUC_R_SQUARED 0.283, read-out: LUCIFERASE INFECTION ASSAY - IC50
  IC50: 9.97 µM
  IC90: > 10 µM

## COc1ccc(CC(N)c2csc(NC(=O)Nc3ccccc3Oc3ccccc3)n2)cc1 (stereo not given)
[1]
  IC50: > 7.17 µM
  IC90: > 7.17 µM

## O=c1nc2n(c3ccccc13)CC/C2=C\c1ccc(Cl)cc1
[1]
  IC50: > 10.7 µM
  IC90: > 10.7 µM

## CCc1ccccc1Nc1nc(N)nc(CN2CCN(S(=O)(=O)Cc3ccccc3)CC2)n1
[1]
  IC50: > 10 µM
  IC90: > 10 µM

## Cc1nn(-c2ccccc2)c2sc(-c3[nH]nc(-c4ccccc4)c3-c3nc4ccccc4[nH]3)cc12
FFLUC_HILL_SLOPE 1.87, FFLUC_R_SQUARED 0.663, HEPG2TOX_HILL_SLOPE 0.372, HEPG2TOX_R_SQUARED 0.356, PBLUC_HILL_SLOPE 1.24, PBLUC_R_SQUARED 0.688, read-out: LUCIFERASE INFECTION ASSAY - IC50
  IC50: 1.3 µM
  IC90: 7.66 µM

## Cc1c(C(=O)Nc2ccc(N3CCOCC3)cc2N2CCOCC2)oc2ccc(F)cc12
[1]
  IC50: > 10 µM
  IC90: > 10 µM

## COc1ccc(-c2cnc3sc(NCCc4ccc(S(N)(=O)=O)cc4)nn23)cn1
[1]
  IC50: > 7.67 µM
  IC90: > 7.67 µM

## CCCN(CCC)c1ccc(/C=C2\C=c3c(O)cccc3=C2O)cc1
HEPG2TOX_HILL_SLOPE 2.7, HEPG2TOX_R_SQUARED 0.839, PBLUC_HILL_SLOPE 2.95, PBLUC_R_SQUARED 0.682, read-out: LUCIFERASE INFECTION ASSAY - IC50
  IC50: 1.6 µM
  IC90: 3.37 µM

## CC1(C)CC(=O)C=C(Sc2nc3cc(Cl)ccc3s2)C1
[1]
  IC50: > 10.2 µM
  IC90: > 10.2 µM

## N#CC(Cc1cccc([N+](=O)[O-])c1)(c1ccccc1)c1ccccc1
HEPG2TOX_HILL_SLOPE 5.53, HEPG2TOX_R_SQUARED 0.223, PBLUC_HILL_SLOPE 1.93, PBLUC_R_SQUARED 0.0999, read-out: LUCIFERASE INFECTION ASSAY - IC50
  IC50: > 10 µM
  IC90: > 10 µM

## Cc1ccc(CC2CC(=O)N(C3CCCCC3)C2=O)cc1 (stereo not given)
[1]
  IC50: > 11.6 µM
  IC90: > 11.6 µM

## Cc1sc2ncnc(Sc3nnc(C(F)(F)F)n3C)c2c1C
[1]
  IC50: > 10 µM
  IC90: > 10 µM

## CCOC(=O)/C=C/C(=O)OCC(=O)NC(c1ccccc1)c1ccccc1
[1]
  IC50: > 10 µM
  IC90: > 10 µM

## CC(C)Nc1cc(C(=O)Nc2ccccc2)ncn1
FFLUC_HILL_SLOPE 1.2, FFLUC_R_SQUARED 0.891, PBLUC_HILL_SLOPE 0.483, PBLUC_R_SQUARED 0.815, read-out: LUCIFERASE INFECTION ASSAY - IC50
  IC50: 0.196 µM
  IC90: > 12.9 µM

## CC(c1nc(=O)c2c(-c3ccccc3)csc2[nH]1)N(C)Cc1ccccc1N1CCCC1 (stereo not given)
[1]
  IC50: > 10 µM
  IC90: > 10 µM
